# Data as given in patent US6630174B2, “Methods and compositions for retarding and eradicating infestation in trees and tree derived products” (Nisus Corporation, priority 1990, dated 2003).
# How the values were obtained:
# [1] = tested on: broad spectrum of infestation; test: Boron concentration effective against infestation; type: in vivo; conditions: concentration in the wood
# dry wood termites = conditions: in vivo; cited from earlier work
Structure (SMILES),concentration generally effective for preventing or eradicating a broad spectrum of infestation [1] [ppm],boron concentration efficacious against dry wood termites (dry wood termites) [parts per million]
"O.O.O.O.O=BOB1OB(OB=O)OB2OB([O-])OB([O-])OB(O1)O2.[Na+].[Na+] [DOT, disodium octaborate tetrahydrate]",2400,–
[B] [boron],500,100
